Source: patent US9593127B2, “Heterocyclylalkyne derivatives and their use as modulators of mGluR5 receptors” (RECORDATI IRELAND LTD., priority 2014, dated 2017)

How the values were obtained:
[1] = target: T1, human mGlu5 receptor (CHO T-REx h-mGluR5 cells) (Homo sapiens (Human), UniProt P41594); experiment: Calcium fluorescence measurement, antagonist potency against EC80 of quisqualate; format: cell-based; conditions: agonist quisqualate at EC80; read-out: h.c. mgluR5 Calcium IC50
From the text: (§1) Cell lines stably transfected were generated using inducible expression vectors encoding human mGlu5 receptor using the Tetracycline-Regulated Expression system (T-REx™ system, Invitrogen, Life Technologies). Human mGluR5 open reading frame (ORF), comprehensive of the stop codon, were cloned into the pcDNA4/TO/myc-His™ A vector, carrying the TetO2 sequences. The insertion site was HindIII-PstI for mGluR5 receptors. The obtained constructs were then transfected into the T-REx CHO™ cell line using the FuGENE protocol (Roche); the CHO T-REx™ cell line stably expresses the Tet repressor (from the pcDNA6/TR plasmid) under the selection of blasticidin, 10 μg/ml. Stable clones were obtained selecting with zeocine 1 mg/ml and maintaining in ULTRA CHO medium (LONZA) supplemented with dialyzed FBS, zeocin, blasticidine, at 37° C., in an atmosphere of 5% CO2. The expression of h-mGluR5 receptors was de-repressed with 1 μg/ml tetracycline for 18 h before binding experimentation, while the expression of h-mGluR5 receptors was de-repressed respectively with 3 ng/ml and 10 ng/ml tetracycline for 18 h before calcium fluorescence experimentation.
(§2) Cells were seeded into black-walled, clear-bottom, 96-well plates at a density of 80000 cell/well, in RPMI (without Phenol Red, without L-glutamine; Gibco LifeTechnologies, CA) supplemented with 10% dialyzed FBS. Following 18-h incubation with tetracycline, the cells were loaded with […] Ca^2+—sensitive fluorescent dye Fluo-4/AM (Molecular Probes) in Hanks' balanced saline solution (HBSS, Gibco LifeTechnologies, CA) with 20 mM Hepes (Sigma) and 2.5 mM probenecid (Sigma), for 1 h at 37° C. The cells were washed three times with HBSS to remove extracellular dye. Fluorescence signals were measured by using the fluorescence microplate reader Flexstation III (Molecular Devices) at sampling intervals of 1.5 s for 60 s.
(§3) The antagonist potency was determined using the EC80 of the quisqualate used as agonist and the potentiation of mGlu5 activation was determined using the EC20 of the agonist (quisqualate or glutamate). The compounds were applied 10 minutes before the application of the agonist. For binding and calcium assay studies, the compounds were dissolved in DMSO or demineralized water according to their solubility. All the reported doses were those of the corresponding salts or bases.

[2] = target: T1, human mGlu5 receptor (CHO T-REx h-mGluR5 cells); experiment: Radioligand binding assay at cloned mGluR5 ([3H]MPEP displacement); conditions: 4 nM [3H]MPEP, read-out: h.c. mglu R5 IC50
From the text: as §1
Affinity at transmembrane glutamate metabotropic mGluR5 receptor subtypes was evaluated according to the methods of Anderson (Anderson et al., J Pharmacol. Exp. Ther., (2002), Vol. 303(3), pp. 1044-51), with some modifications. Cloned mGluR5 was obtained by re-suspending CHO T-REx h-mGluR5 cells (50 μg/well) in 20 mM HEPES, 2 mM MgCl2, 2 mM CaCl2, pH 7.4, that then were incubated in a final volume of 1 ml for 60 min at 25° C. with 4 nM [^3H]MPEP in the absence or presence of competing drugs. Non-specific binding was determined in the presence of […] MPEP. The incubation was stopped by addition of cold Tris buffer pH 7.4 and rapid filtration through 0.2% polyethyleneimine pretreated Filtermat 1204-401 (Perkin Elmer) filters. The filters were then washed with cold buffer and the radioactivity retained on the filters was counted by liquid scintillation spectrometry (Betaplate 1204 BS-Wallac).
as §3
The inhibition curves of the tested compounds at native and cloned mGluR1 and mGluR5 subtypes were determined by nonlinear regression analysis using software Prism 4.0 (Graphpad, San Diego, Calif.). The IC50 values and pseudo-Hill slope coefficients were estimated by the program. The values for the inhibition constant, Ki, were calculated according to the equation Ki=IC50/(1+[L]/Kd), where [L] is the concentration of radioligand and Kd is the equilibrium dissociation constant of the radioligand-receptor complex (Cheng et al., Biochem. Pharmacol. (1973), Vol. 22, pp. 3099-3108).

[3] = target: T1, human mGlu5 receptor (CHO T-REx h-mGluR5 cells); experiment: Calcium fluorescence measurement, potentiation of mGlu5 activation at EC20 of quisqualate; format: cell-based; conditions: for Fold Shift 1 microM Quisq. / Fold Inc. Quisq.: agonist quisqualate; for EC50: potentiation, agonist quisqualate at EC20, read-out: EC50 nM Quisq.
From the text: as §1, §2, §3

T1 sequence (P41594 21-1212): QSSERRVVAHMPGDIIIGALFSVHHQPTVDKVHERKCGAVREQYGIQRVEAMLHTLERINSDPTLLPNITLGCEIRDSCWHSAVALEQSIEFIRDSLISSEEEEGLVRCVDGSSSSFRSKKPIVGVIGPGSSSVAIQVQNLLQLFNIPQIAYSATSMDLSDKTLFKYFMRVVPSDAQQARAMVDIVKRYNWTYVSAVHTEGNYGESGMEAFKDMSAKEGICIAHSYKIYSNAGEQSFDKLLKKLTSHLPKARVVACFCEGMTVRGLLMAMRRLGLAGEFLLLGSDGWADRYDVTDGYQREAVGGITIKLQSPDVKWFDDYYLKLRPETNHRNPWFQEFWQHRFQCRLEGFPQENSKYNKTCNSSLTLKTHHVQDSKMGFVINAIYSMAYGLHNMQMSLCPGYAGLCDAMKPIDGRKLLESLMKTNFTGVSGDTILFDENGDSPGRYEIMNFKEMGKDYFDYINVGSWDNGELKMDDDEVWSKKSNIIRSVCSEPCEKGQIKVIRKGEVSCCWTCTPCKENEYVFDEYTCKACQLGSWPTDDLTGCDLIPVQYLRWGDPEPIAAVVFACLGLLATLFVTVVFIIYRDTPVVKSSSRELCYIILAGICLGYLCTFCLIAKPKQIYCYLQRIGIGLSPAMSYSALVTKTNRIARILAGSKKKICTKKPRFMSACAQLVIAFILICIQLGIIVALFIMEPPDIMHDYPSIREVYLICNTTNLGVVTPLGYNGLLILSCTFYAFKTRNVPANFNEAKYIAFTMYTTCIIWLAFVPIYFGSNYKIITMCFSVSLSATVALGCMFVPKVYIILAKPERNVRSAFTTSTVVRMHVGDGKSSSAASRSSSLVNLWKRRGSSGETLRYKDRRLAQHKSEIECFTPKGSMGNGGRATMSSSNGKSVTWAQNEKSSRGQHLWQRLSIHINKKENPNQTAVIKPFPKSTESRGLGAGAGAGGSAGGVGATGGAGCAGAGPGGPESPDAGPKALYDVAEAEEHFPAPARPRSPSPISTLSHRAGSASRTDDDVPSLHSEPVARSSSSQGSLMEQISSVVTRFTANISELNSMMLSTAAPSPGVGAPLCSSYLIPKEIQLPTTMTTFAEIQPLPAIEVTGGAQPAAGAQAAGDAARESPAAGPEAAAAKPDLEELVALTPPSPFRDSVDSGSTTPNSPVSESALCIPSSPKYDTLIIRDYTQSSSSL

For `O=C(N1CCCC1)N1CCC2C(C#Cc3cccc(Cl)c3)=NOC21` (centres unmarked) [Example 9, [3-[2-(3-chlorophenyl)ethynyl]-3a,4,5,6a-tetrahydropyrrolo[3,2-d]isoxazol-6-yl]-pyrrolidin-1-yl-methanone], the IC50 [1] was > 1000 nM and the IC50 [2] was 15 nM.

`CCN(CC)C(=O)N1CCC2C(C#Cc3cccc(C)c3)=NOC21` (centres unmarked) [Example 14, N,N-diethyl-3-[2-(m-tolyl)ethynyl]-3a,4,5,6a-tetrahydropyrrolo[3,2-d]isoxazole-6-carboxamide] was tested, and the IC50 [1] was > 1000 nM and the IC50 [2] was 14.8 nM.

`Cc1cccc(C#CC2=NOC3C2CCN3C(=O)N2CCOCC2)c1` (centres unmarked) [Example 13, morpholino-[3-[2-(m-tolyl)ethynyl]-3a,4,5,6a-tetrahydropyrrolo[3,2-d]isoxazol-6-yl]methanone] was tested, and the IC50 [1] was > 1000 nM, the “Fold Shift 1 microM Quisq.” value [3] was 3.2 fold and the “Fold Inc. Quisq.” value [3] was 2.06 fold. It also gave an EC50 [3] of 131 nM and an IC50 [2] of 50 nM.

`O=C(N1CCCCC1)N1CCC2C(C#Cc3cccc(Cl)c3)=NOC21` (centres unmarked) [Example 8, [3-[2-(3-chlorophenyl)ethynyl]-3a,4,5,6a-tetrahydropyrrolo[3,2-d]isoxazol-6-yl]-(1-piperidyl)methanone] was tested, and the IC50 [1] was > 1000 nM and the IC50 [2] was 12.5 nM.

In the case of `O=C(c1ccco1)N1CCC2C(C#Cc3cccc(Cl)c3)=NOC21` (centres unmarked) [Example 2, [3-[2-(3-chlorophenyl)ethynyl]-3a,4,5,6a-tetrahydropyrrolo[3,2-d]isoxazol-6-yl]-(2-furyl)methanone], the IC50 [1] is reported as > 1000 nM, the “Fold Inc. Quisq.” value [3] is reported as 0 fold and the IC50 [2] is reported as 29.6 nM.

With `Cc1cccc(C#CC2=NOC3C2CCN3C(=O)N2CCCC2)c1` (centres unmarked) [Example 11, [3-[2-(m-tolyl)ethynyl]-3a,4,5,6a-tetrahydropyrrolo[3,2-d]isoxazol-6-yl]-pyrrolidin-1-yl-methanone] the IC50 [1] was > 1000 nM and the IC50 [2] was 17 nM.

`Cc1cccc(C#CC2=NOC3C2CCN3C(=O)OC(C)(C)C)c1` (centres unmarked) [Example 10, tert-butyl 3-[2-(m-tolyl)ethynyl]-3a,4,5,6a-tetrahydropyrrolo[3,2-d]isoxazole-6-carboxylate] was tested, and the IC50 [1] was > 1000 nM, the “Fold Shift 1 microM Quisq.” value [3] was 2.2 fold and the “Fold Inc. Quisq.” value [3] was 3.5 fold. It also gave an EC50 [3] of 141 nM and an IC50 [2] of 3.65 nM.

For `CC(C)(C)OC(=O)N1CCC2C(C#Cc3cccc(Cl)c3)=NOC21` (centres unmarked) [Example 1, tert-butyl 3-[2-(3-chlorophenyl)ethynyl]-3a,4,5,6a-tetrahydropyrrolo[3,2-d]isoxazole-6-carboxylate], the IC50 [1] was > 1000 nM, the “Fold Shift 1 microM Quisq.” value [3] was 1.8 fold and the “Fold Inc. Quisq.” value [3] was 1.96 fold. It also gave an EC50 [3] of 37.1 nM and an IC50 [2] of 3.87 nM.

Work on `CN(C)C(=O)N1CCC2C(C#Cc3cccc(Cl)c3)=NOC21` (centres unmarked) [Example 7, 3-[2-(3-chlorophenyl)ethynyl]-N,N-dimethyl-3a,4,5,6a-tetrahydropyrrolo[3,2-d]isoxazole-6-carboxamide] yielded an IC50 [1] of 212 nM and an IC50 [2] of 59.2 nM.

For `CCOC(=O)N1CCC2C(C#Cc3cccc(Cl)c3)=NOC21` (centres unmarked) [Example 3, ethyl 3-[2-(3-chlorophenyl)ethynyl]-3a,4,5,6a-tetrahydropyrrolo[3,2-d]isoxazole-6-carboxylate], the IC50 [1] was 54.8 nM and the IC50 [2] was 81.5 nM.

`CON(C)C(=O)N1CCC2C(C#Cc3cccc(C)c3)=NOC21` (centres unmarked) [Example 15, N-methoxy-N-methyl-3-[2-(m-tolyl)ethynyl]-3a,4,5,6a-tetrahydropyrrolo[3,2-d]isoxazole-6-carboxamide] gave an IC50 [1] of 21.1 nM and an IC50 [2] of 22 nM.
